{
  "source": "paper PMC5409479",
  "about": "(The Journal of Biological Chemistry, 2017)",
  "origin": "cited, not measured here",
  "key": {"[1]": {"system": "GCGR, mutation of Trp-36 to Ala", "settings": "GCGR Trp-36 to Ala; significantly increased expression", "source_text": "(§1) This could also move residues Thr-35, Trp-39, Tyr-88, Leu-89, Pro-90, and Trp-91 away from the peptide interface observed in the crystal structure, while bringing Trp-33 and Arg-40 into closer proxim ..."}, "GLP-1R L89A": {"system": "GLP-1R L89A", "parameters": "method as in PMID 19861722"}, "[2]": {"system": "GLP-1R, mutation of Glu-125 to Ala", "parameters": "method as in PMID 19815559, PMID 21868452, PMID 20529866"}, "[3]": {"system": "GLP-1R, mutation of Arg-40 to Ala", "source_text": "as §1"}, "[4]": {"system": "GLP-1R, mutation of Trp-39 to Ala or Phe", "settings": "expression comparable with wild type", "source_text": "as §1"}},
  "data": [
    {"substance": "GLP-1(7–36)NH2: a high affinity agonist", "values": [
      {"measurement": "affinity and agonism (in words)", "setting": "GLP-1R", "result": "a high affinity agonist"}
    ]},
    {"substance": "GLP-1(9–36)NH2", "values": [
      {"measurement": "affinity and agonism (in words)", "setting": "GLP-1R", "result": "a low affinity partial agonist"}
    ]},
    {"substance": "GCG: glucagon", "values": [
      {"measurement": "GCG binding (in words)", "setting": "[1]", "result": "no detectable binding of GCG"}
    ]},
    {"substance": "exendin(9–39)", "values": [
      {"measurement": "affinity and agonism (in words)", "setting": "GLP-1R", "result": "a high affinity antagonist"}
    ]},
    {"substance": "GLP-1: cognate ligand of GLP-1R", "values": [
      {"measurement": "GLP-1 peptide binding (in words)", "setting": "GLP-1R L89A", "result": "abolishing GLP-1 peptide binding"},
      {"measurement": "GLP-1 binding affinity or function (in words)", "setting": "[2]", "result": "did not significantly impact GLP-1 binding affinity or function"},
      {"measurement": "binding affinity of GLP-1 (in words)", "setting": "[3]", "result": "small decrease in binding affinity of GLP-1"},
      {"measurement": "GLP-1 binding (in words)", "setting": "[4]", "result": "loss of detectable GLP-1 binding"}
    ]}
  ]
}
